Here are results for 17 compounds from US8673915B2, “P 2×4 receptor antagonist” (Nippon Chemiphar Co., Ltd., priority 2010, dated 2014).

Structures can show the parent of a compound that is named as a salt.

As a reminder, the IC50 is the concentration at which inhibition is half-maximal.

The first test has as its target T1, P2X4 receptor (Homo sapiens, UniProt Q99571).
T1 sequence (Q99571 1-388): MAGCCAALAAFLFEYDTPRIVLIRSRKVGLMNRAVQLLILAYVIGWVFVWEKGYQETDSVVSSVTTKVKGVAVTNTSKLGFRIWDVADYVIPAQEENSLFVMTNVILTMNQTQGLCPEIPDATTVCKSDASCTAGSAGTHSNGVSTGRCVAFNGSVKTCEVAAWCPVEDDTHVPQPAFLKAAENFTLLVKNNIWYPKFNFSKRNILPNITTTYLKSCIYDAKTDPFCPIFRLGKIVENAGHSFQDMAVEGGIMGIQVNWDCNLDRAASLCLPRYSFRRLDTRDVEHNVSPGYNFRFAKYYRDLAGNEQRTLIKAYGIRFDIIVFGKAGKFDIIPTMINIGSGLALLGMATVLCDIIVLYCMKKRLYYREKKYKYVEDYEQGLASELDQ
Test: not given
The following applies: disclosed in Non-patent document 8; cited from earlier work.
Turning to `Fc1ccc([C@@H]2CCNC[C@H]2COc2ccc3c(c2)OCO3)cc1` [Paroxetine], the P2X4 receptor antagonism entry is recorded as “shows P2X4 receptor antagonism”.

The target of another test is T1, P2X4 receptor. The test can be described thus: Intracellular calcium assay (Fura-2 AM) of ATP-induced calcium influx in 1321N1 cells stably expressing human P2X4 receptors. It counts as cell-based. The following applies: Table 25, Example 30; 1321N1 cells expressing human P2X4; compounds added 15 minutes before ATP; Fura-2 340/380 nm ratio; read-out: IC50 (P2X4 receptor antagonism). The procedure:
1321N1 cells stably expressing human P2X4 receptors were plated in 96-well assay plate and cultured 24 hours at 37° C. in an atmosphere of 5% CO2 for intracellular calcium assay. Fura-2 AM calcium fluorescent indicator was used for the intracellular calcium assay. Fura-2 AM was dissolved in an assay buffer, and the solution was loaded onto cells. The obtained plate was used for fluorescent assay. Test compounds were treated to cells 15 minutes before the addition of ATP, and the response to intracellular calcium influx induced by addition of ATP was monitored by a micro plate reader. The fluorescence ratio of excitations wavelengths of 340 nm and 380 nm was used as the index of intracellular calcium change. The inhibition activities of the test compounds were calculated by comparison with the absence of the test compound (control).
P2X4 receptor antagonism of the compound of the present invention was measured as described below.
P2X4 receptor antagonism of the compound of the present invention was measured in the same manner as in Example 30.
In general terms: A change in cytosolic calcium serves as a functional read-out for many receptors and channels.
With `O=c1[nH]c2c3ccccc3ccc2n(-c2cccc(-c3nnn[nH]3)c2)c1=O` [Example 2, 4-[3-(1H-Tetrazol-5-yl)phenyl]-1,4-dihydrobenzo[f]quinoxaline-2,3-dione sodium salt], the half-maximal inhibitory concentration (IC50) was 460 nM.

With `COc1cccc(-n2c(=O)c(=O)[nH]c3c4ccccc4ccc32)c1` [Example 3, 4-(3-Methoxyphenyl)-1,4-dihydrobenzo[f]quinoxaline-2,3-dione], the half-maximal inhibitory concentration (IC50) is 6600 nM.

For `Nc1cccc(-n2c(=O)c(=O)[nH]c3c4c(ccc32)CCCC4)c1` [Example 7, 4-(3-Aminophenyl)-1,4,7,8,9,10-hexahydrobenzo[f]quinoxaline-2,3-dione hydrochloride], the half-inhibitory concentration (IC50) worked out at 5100 nM.

Regarding `O=c1[nH]c2c3c(ccc2n(-c2cccc(NS(=O)(=O)c4ccccc4[N+](=O)[O-])c2)c1=O)CCCC3` [Example 9, N-[3-(2,3-Dioxo-2,3,7,8,9,10-hexahydrobenzo[f]quinoxalin-4(1H)-yl)phenyl]-2-nitrobenzenesulfonamide], the 50% inhibitory concentration (IC50) was determined as 2100 nM.

Still in this test, the particulars now being: Table 26, Example 31; same manner as in Example 30; read-out: IC50 (P2X4 receptor antagonism).
In the case of `O=c1[nH]c2c3c(ccc2n(-c2cccc(NS(=O)(=O)c4cccc5cccnc45)c2)c1=O)CCCC3` [Example 28, N-[3-(2,3-Dioxo-2,3,7,8,9,10-hexahydro-1H-benzo[f]quinoxalin-4-yl)phenyl]-8-quinolinesulfonamide hydrochloride], the IC50 was found to be 1900 nM.

As for `O=c1[nH]c2c3c(ccc2n(-c2cccc(NS(=O)(=O)c4cccs4)c2)c1=O)CCCC3` [Example 26, N-[3-(2,3-Dioxo-2,3,7,8,9,10-hexahydro-1H-benzo[f]quinoxalin-4-yl)phenyl]-2-thiophenesulfonamide], the IC50 is 1800 nM.

Turning to `Nc1cccc(-n2c(=O)c(=O)[nH]c3c4ccccc4ccc32)c1` [Example 13, 4-(3-Aminophenyl)-1,4-dihydrobenzo[f]quinoxaline-2,3-dione hydrochloride], the 50% inhibitory concentration (IC50) was determined as 2100 nM.

Turning to `O=C(Nc1cccc(-n2c(=O)c(=O)[nH]c3c4c(ccc32)CCCC4)c1)c1ccccc1C(F)(F)F` [Example 21], the concentration for half-maximal inhibition (IC50) turned out to be 7700 nM.

As for `O=c1[nH]c2c3c(ccc2n(-c2cccc(NS(=O)(=O)c4cccc(Br)c4)c2)c1=O)CCCC3` [Example 23, 3-Bromo-N-[3-(2,3-dioxo-2,3,7,8,9,10-hexahydro-1H-benzo[f]quinoxalin-4-yl)phenyl]benzenesulfonamide], the half-maximal inhibitory concentration (IC50) is 1300 nM.

In the case of `O=c1[nH]c2c3ccccc3ccc2n(-c2ccc(O)cc2)c1=O` [Example 17, 4-(4-Hydroxyphenyl)-1,4-dihydrobenzo[f]quinoxaline-2,3-dione sodium salt], the 50% inhibitory concentration (IC50) came to 2700 nM.

`Nc1ccc(-n2c(=O)c(=O)[nH]c3c4ccccc4ccc32)cc1` [Example 18, 4-(4-Aminophenyl)-1,4-dihydrobenzo[f]quinoxaline-2,3-dione hydrochloride]: the IC50 stood at 5700 nM.

As for `O=c1[nH]c2c3c(ccc2n(-c2cccc(NS(=O)(=O)c4ccccc4)c2)c1=O)CCCC3` [Example 22, N-[3-(2,3-Dioxo-2,3,7,8,9,10-hexahydro-1H-benzo[f]quinoxalin-4-yl)phenyl]benzenesulfonamide], the IC50 was 800 nM.

For the compound `O=C(Cc1ccccc1I)Nc1cccc(-n2c(=O)c(=O)[nH]c3c4ccccc4ccc32)c1` [Example 14, 4-[3-[(2-Iodophenylacetyl)amino]phenyl)-1,4-dihydrobenzo[f]quinoxaline-2,3-dione], the 50% inhibitory concentration (IC50) stood at 880 nM.

Regarding `Cc1nnc(-c2cccc(-n3c(=O)c(=O)[nH]c4c5ccccc5ccc43)c2)o1` [Example 15, 4-[3-(5-Methyl-[1,3,4]oxadiazol-2-yl)phenyl]-1,4-dihydrobenzo[f]quinoxaline-2,3-dione], the IC50 was 6700 nM.

As for `O=c1[nH]c2c3c(ccc2n(-c2cccc(NS(=O)(=O)c4cccc5ccccc45)c2)c1=O)CCCC3` [Example 24, N-[3-(2,3-Dioxo-2,3,7,8,9,10-hexahydro-1H-benzo[f]quinoxalin-4-yl)phenyl]-1-naphthalenesulfonamide], the IC50 was 2600 nM.

Take `O=c1[nH]c2c3c(ccc2n(-c2cccc(NS(=O)(=O)c4cccnc4)c2)c1=O)CCCC3` [Example 27, N-[3-(2,3-Dioxo-2,3,7,8,9,10-hexahydro-1H-benzo[f]quinoxalin-4-yl)phenyl]-3-pyridinesulfonamide hydrochloride]: the IC50 was 3000 nM.
